Assay results taken from ChEMBL document CHEMBL1134858, “Identification of a novel 1'-[5-((3,5-dichlorobenzoyl)methylamino)-3-(3,4-dichlorophenyl)-4-(methoxyimino)pentyl]-2-oxo-(1,4'-bipiperidine) as a dual NK(1)/NK(2) antagonist” (Bioorg Med Chem Lett, 2002).
Values joined by “and” are separate entries in the source; they are usually repeats but may differ in a detail not shown here. Equal values may be shown once.

Columns and labels:
Substance-P receptor [1] = target: T1, Substance-P receptor (Cavia porcellus, UniProt P30547); assay: In vitro binding to Tachykinin receptor 1
Substance-K receptor [2] = target: T2, Substance-K receptor (Cavia porcellus, UniProt Q64077); assay: In vitro functional NK2 activity as inhibition of guinea pig bronchoconstriction; format: tissue-based, Lung; settings: read-out: pA2 (converted)
T2 sequence (Q64077 whole entry): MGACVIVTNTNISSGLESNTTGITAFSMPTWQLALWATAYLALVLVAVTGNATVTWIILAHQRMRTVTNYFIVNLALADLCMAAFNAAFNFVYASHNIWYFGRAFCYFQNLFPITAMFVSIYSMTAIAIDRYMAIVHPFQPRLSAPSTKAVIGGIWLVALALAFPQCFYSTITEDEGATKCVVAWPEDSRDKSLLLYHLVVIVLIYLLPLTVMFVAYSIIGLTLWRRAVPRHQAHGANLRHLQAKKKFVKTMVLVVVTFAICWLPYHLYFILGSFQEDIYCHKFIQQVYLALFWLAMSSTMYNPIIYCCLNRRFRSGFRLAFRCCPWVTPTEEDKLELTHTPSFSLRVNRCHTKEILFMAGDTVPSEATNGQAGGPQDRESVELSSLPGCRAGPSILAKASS

Substance-P receptor [3] = target: T1, Substance-P receptor; assay: In vitro functional NK1 activity as inhibition of guinea pig bronchoconstriction; format: tissue-based, Lung; settings: read-out: pA2 (converted)
Substance-K receptor [4] = target: T2, Substance-K receptor; assay: In vitro binding to Tachykinin receptor 2
[5] = AUC in dog at 0-24 hr by peroral administration at 3 mpk; format: ADME, organism-based, Canis lupus familiaris; design: dose 3 mpk, time < 24 hr, route oral; settings: plasma, po, 3 mg/kg
[6] = Bioavailability in dog; format: ADME, organism-based, Canis lupus familiaris; settings: in vivo
Cavia porcellus [7] = assay: In vivo NK1 activity in the guinea pig is characterized by the compounds ability to inhibit the increase in airway microvascular leakage (AML) produced by a SP challenge; format: functional
Cavia porcellus [8] = assay: In vivo NK2 activity is characterized by the compounds ability to inhibit bronchoconstriction produced by a NKA challenge; format: functional; settings: Lung
Cavia porcellus [9] = assay: In vivo NK1 activity in the guinea pig is characterized by the compounds ability to inhibit the increase in airway microvascular leakage (AML) produced by a SP challenge at 10 mg/kg; format: functional
Cavia porcellus [10] = assay: In vivo NK2 activity is characterized by the compounds ability to inhibit bronchoconstriction produced by a NKA challenge at 10 mg/kg; format: functional; settings: Lung
Cavia porcellus [11] = assay: In vivo NK2 activity is characterized by the compounds ability to inhibit bronchoconstriction produced by a NKA challenge at 10 mpk; format: functional; settings: Lung
Substance-K receptor [12] = target: T2, Substance-K receptor; assay: […] is characterized by the compound ability to inhibit guinea pig bronchoconstriction; format: functional, Lung; settings: read-out: pA2 (converted)

T1 sequence (P30547 whole entry): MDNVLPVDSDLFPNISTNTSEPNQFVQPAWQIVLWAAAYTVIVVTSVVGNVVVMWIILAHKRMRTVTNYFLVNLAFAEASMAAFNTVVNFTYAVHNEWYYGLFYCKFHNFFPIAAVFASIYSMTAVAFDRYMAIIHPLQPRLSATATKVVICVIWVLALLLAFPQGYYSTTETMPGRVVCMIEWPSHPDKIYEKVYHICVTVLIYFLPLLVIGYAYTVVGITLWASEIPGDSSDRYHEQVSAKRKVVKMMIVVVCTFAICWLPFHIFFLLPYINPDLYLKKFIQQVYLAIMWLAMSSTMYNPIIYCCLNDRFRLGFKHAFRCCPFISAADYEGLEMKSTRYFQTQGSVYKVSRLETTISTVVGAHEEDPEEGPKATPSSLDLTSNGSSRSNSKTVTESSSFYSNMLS

| Compound | Ki (Substance-P receptor [1]) | Kb (Substance-K receptor [2]) [nM] | Kb (Substance-P receptor [3]) [nM] | Ki (Substance-K receptor [4]) | AUC at 24 h [5] [ng·h/mL] | bioavailability [6] [%] | Kb (Substance-K receptor [12]) [nM] | ED50 (Cavia porcellus [7]) [mg/kg] | ED50 (Cavia porcellus [8]) [mg/kg] | inhibition in vivo at 10 mg/kg (Cavia porcellus [9]) [%] | inhibition in vivo at 10 mg/kg (Cavia porcellus [10]) [%] | inhibition in vivo at 10 mg/kg (Cavia porcellus [11]) [%] |
| --- | --- | --- | --- | --- | --- | --- | --- | --- | --- | --- | --- | --- |
| CO/N=C(\CN(C)C(=O)c1cc(Cl)cc(Cl)c1)[C@@H](CCN1CCC(N2CCCC(CC(=O)N(C)C)C2=O)CC1)c1ccc(Cl)c(Cl)c1 (stereo not given in full) | 0.8 nM | 39.8 | 10 | 0.3 nM |  |  |  |  |  |  |  |  |
| CNC(=O)CC1CCCN(C2CCN(CCC(/C(CN(C)C(=O)c3cc(Cl)cc(Cl)c3)=N/OC)c3ccc(Cl)c(Cl)c3)CC2)C1=O (stereo not given) | 2 nM | 50.1 |  | 2 nM |  |  |  |  |  |  |  |  |
| CO/N=C(\CN(C)C(=O)c1cc(Cl)cc(Cl)c1)[C@H](CCN1CCC(N2CCCC(CC(N)=O)C2=O)CC1)c1ccc(Cl)c(Cl)c1 (stereo not given in full) | 0.8 nM | 10 | 10 | 0.3 nM | 9490 | 37 |  | 1 | 4 |  |  |  |
| CO/N=C(\CN(C)C(=O)c1cc(Cl)cc(Cl)c1)C(CCN1CCC(N2CCCC(CC(=O)N(C)C)C2=O)CC1)c1ccc(Cl)c(Cl)c1 (stereo not given) | 1 nM | 63.1 |  | 1 nM |  |  |  |  |  |  |  |  |
| CNC(=O)CC1CCCN(C2CCN(CC[C@H](/C(CN(C)C(=O)c3cc(Cl)cc(Cl)c3)=N/OC)c3ccc(Cl)c(Cl)c3)CC2)C1=O (stereo not given in full) | 1.5 nM | 39.8 | 10 | 0.9 nM |  |  |  |  |  |  |  |  |
| CO/N=C(\CN(C)C(=O)c1cc(Cl)cc(Cl)c1)C(CCN1CCC(N2CCCCC2=O)CC1)c1ccc(Cl)c(Cl)c1 (stereo not given) | 5 nM | 50.1 |  | 2 nM |  |  |  |  |  |  |  |  |
| CNC(=O)CC1CCCN(C2CCN(CC[C@@H](/C(CN(C)C(=O)c3cc(Cl)cc(Cl)c3)=N/OC)c3ccc(Cl)c(Cl)c3)CC2)C1=O (stereo not given in full) | 1.3 nM | 15.8 | 12.6 | 0.4 nM | 13600 | 66 |  | 1 | 3 |  |  |  |
| CO/N=C(\CN(C)C(=O)c1cc(Cl)cc(Cl)c1)[C@H](CCN1CCC(N2CCCC(CC(=O)N(C)C)C2=O)CC1)c1ccc(Cl)c(Cl)c1 (stereo not given in full) | 0.8 nM | 39.8 | 12.6 | 0.2 nM | 3460 |  |  | 3 | 3 |  |  |  |
| CO/N=C(\CN(C)C(=O)c1cc(Cl)cc(Cl)c1)[C@H](CCN1CCC(N2CCCCC2=O)CC1)c1ccc(Cl)c(Cl)c1 | 1.2 nM and 1 nM | 20 | 10 | 0.8 nM and 1 nM | 1220 | 5 |  | 1 | 3 |  |  |  |

Second part, led by results:

| Ki (Substance-P receptor [1]) | Kb (Substance-K receptor [2]) [nM] | Kb (Substance-P receptor [3]) [nM] | Ki (Substance-K receptor [4]) | AUC at 24 h [5] [ng·h/mL] | bioavailability [6] [%] | Kb (Substance-K receptor [12]) [nM] | Compound | ED50 (Cavia porcellus [7]) [mg/kg] | ED50 (Cavia porcellus [8]) [mg/kg] | inhibition in vivo at 10 mg/kg (Cavia porcellus [9]) [%] | inhibition in vivo at 10 mg/kg (Cavia porcellus [10]) [%] | inhibition in vivo at 10 mg/kg (Cavia porcellus [11]) [%] |
| --- | --- | --- | --- | --- | --- | --- | --- | --- | --- | --- | --- | --- |
| 0.8 nM | 126 | 6.31 | 0.8 nM |  |  |  | CO/N=C(\CN(C)C(=O)c1cc(Cl)cc(Cl)c1)[C@@H](CCN1CCC(N2CCCC(CC(=O)N3CCOCC3)C2=O)CC1)c1ccc(Cl)c(Cl)c1 (stereo not given in full) |  |  |  |  |  |
| 3 nM | 25.1 |  | 2 nM |  |  |  | CO/N=C(\CN(C)C(=O)c1cc(Cl)cc(Cl)c1)C(CCN1CCC(N2CCCC(CC(=O)N3CC(O)C3)C2=O)CC1)c1ccc(Cl)c(Cl)c1 (stereo not given) |  |  |  |  |  |
| 0.7 nM | 12.6 | 15.8 | 0.4 nM |  |  |  | CO/N=C(\CN(C)C(=O)c1cc(Cl)cc(Cl)c1)[C@H](CCN1CCC(N2CCCC(CC(=O)N3CCOCC3)C2=O)CC1)c1ccc(Cl)c(Cl)c1 (stereo not given in full) |  |  | 47 | 97 |  |
| 0.6 nM | 50.1 | 10 | 0.3 nM |  |  |  | CO/N=C(\CN(C)C(=O)c1cc(Cl)cc(Cl)c1)[C@H](CCN1CCC(N2CCCC(CC(=O)N3CC(O)C3)C2=O)CC1)c1ccc(Cl)c(Cl)c1 (stereo not given in full) |  |  | 45 |  | 64 |
| 0.4 nM | 50.1 | 20 | 0.3 nM |  |  |  | CO/N=C(\CN(C)C(=O)c1cc(Cl)cc(Cl)c1)[C@@H](CCN1CCC(N2CCCC(CC(N)=O)C2=O)CC1)c1ccc(Cl)c(Cl)c1 (stereo not given in full) |  |  |  |  |  |
| 1 nM | 50.1 |  | 1 nM |  |  |  | CO/N=C(\CN(C)C(=O)c1cc(Cl)cc(Cl)c1)C(CCN1CCC(N2CCCC(CC(=O)N3CCOCC3)C2=O)CC1)c1ccc(Cl)c(Cl)c1 (stereo not given) |  |  |  |  |  |
| 2 nM | 100 |  | 3 nM |  |  |  | CO/N=C(\CN(C)C(=O)c1cc(Cl)cc(Cl)c1)C(CCN1CCC(N2CCCC(CC(N)=O)C2=O)CC1)c1ccc(Cl)c(Cl)c1 (stereo not given) |  |  |  |  |  |
| 1.1 nM |  |  | 0.6 nM |  |  | 501 | CO/N=C(\CN(C)C(=O)c1cc(Cl)cc(Cl)c1)[C@@H](CCN1CCC(N2CCCC(CC(=O)N3CC(O)C3)C2=O)CC1)c1ccc(Cl)c(Cl)c1 (stereo not given in full) |  |  |  |  |  |
